Laboratory results reported in patent US9758524B2, “4-imidazopyridazin-1-yl-benzamides as Btk inhibitors” (Merck Sharp & Dohme B.V., priority 2011, dated 2017).
Read-outs that look alike come from different tables or passages of the source.

Columns and labels:
Src enzyme = Src enzyme (Homo sapiens (Human), UniProt P12931); test: Src enzyme activity (IMAP fluorescence polarization assay); details: read-out: EC50 Src activity values; IMAP, 60 min pre-incubation, 4 μM ATP
Btk enzyme (His-Btk) = Btk enzyme (His-Btk) (Homo sapiens (Human), UniProt Q06187); test: Btk enzyme activity (IMAP fluorescence polarization assay)
Sequence of Btk enzyme (His-Btk) (Q06187 whole entry): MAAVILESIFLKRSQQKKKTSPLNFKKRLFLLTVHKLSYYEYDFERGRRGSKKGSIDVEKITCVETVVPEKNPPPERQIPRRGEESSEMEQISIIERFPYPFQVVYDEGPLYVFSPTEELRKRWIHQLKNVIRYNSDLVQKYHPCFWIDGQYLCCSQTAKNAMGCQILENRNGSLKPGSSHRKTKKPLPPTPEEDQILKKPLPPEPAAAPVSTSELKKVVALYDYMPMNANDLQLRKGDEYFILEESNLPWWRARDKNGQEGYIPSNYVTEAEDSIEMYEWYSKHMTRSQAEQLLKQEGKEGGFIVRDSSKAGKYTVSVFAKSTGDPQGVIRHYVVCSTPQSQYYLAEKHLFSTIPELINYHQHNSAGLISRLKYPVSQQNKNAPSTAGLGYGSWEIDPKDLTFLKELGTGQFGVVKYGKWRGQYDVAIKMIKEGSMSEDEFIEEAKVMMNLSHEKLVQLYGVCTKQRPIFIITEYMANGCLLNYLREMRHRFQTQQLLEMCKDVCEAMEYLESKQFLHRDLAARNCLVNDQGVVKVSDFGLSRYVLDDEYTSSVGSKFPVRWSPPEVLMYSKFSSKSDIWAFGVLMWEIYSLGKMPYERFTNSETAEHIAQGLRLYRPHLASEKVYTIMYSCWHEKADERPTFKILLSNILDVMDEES

Lyn enzyme = Lyn enzyme (Homo sapiens (Human), UniProt P07948); test: Lyn enzyme activity (IMAP fluorescence polarization assay)
Sequence of Lyn enzyme (P07948 whole entry): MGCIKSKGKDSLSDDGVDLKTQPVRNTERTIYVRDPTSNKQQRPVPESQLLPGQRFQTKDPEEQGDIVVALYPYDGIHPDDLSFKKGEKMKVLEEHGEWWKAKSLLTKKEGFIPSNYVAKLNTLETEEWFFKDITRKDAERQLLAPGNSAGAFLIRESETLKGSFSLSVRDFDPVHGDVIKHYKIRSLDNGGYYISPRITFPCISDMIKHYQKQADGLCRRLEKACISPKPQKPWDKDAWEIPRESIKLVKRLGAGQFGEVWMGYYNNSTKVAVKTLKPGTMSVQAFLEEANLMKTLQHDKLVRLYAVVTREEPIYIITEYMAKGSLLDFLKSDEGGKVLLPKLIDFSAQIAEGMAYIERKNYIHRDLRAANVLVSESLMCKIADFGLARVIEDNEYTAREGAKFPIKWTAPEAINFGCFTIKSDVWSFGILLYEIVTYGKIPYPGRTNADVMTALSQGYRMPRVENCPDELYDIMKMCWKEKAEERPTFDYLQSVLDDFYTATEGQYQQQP

Lck enzyme = Lck enzyme (Homo sapiens (Human), UniProt P06239); test: Lck enzyme activity (IMAP fluorescence polarization assay)
Sequence of Lck enzyme (P06239 whole entry): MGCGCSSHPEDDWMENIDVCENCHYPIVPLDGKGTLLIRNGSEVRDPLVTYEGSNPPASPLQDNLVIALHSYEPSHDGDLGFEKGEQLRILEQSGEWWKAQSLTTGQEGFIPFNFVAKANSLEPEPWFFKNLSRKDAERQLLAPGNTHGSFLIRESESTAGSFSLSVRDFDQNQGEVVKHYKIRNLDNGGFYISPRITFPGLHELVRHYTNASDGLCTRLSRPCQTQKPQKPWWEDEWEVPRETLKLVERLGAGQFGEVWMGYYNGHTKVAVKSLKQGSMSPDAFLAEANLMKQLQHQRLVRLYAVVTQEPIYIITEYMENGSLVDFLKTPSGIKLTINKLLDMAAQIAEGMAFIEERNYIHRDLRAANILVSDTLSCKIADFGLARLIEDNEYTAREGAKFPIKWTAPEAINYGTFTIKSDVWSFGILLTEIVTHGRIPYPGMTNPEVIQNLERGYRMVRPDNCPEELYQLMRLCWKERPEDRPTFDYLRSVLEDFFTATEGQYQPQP

FynT enzyme = FynT enzyme (Homo sapiens (Human), UniProt P06241); test: FynT enzyme activity (IMAP fluorescence polarization assay); assay type: biochemical; details: 60 min pre-incubation, 0.2 μM ATP
Sequence of FynT enzyme (P06241 other isoform, or with tags, fused parts or gaps): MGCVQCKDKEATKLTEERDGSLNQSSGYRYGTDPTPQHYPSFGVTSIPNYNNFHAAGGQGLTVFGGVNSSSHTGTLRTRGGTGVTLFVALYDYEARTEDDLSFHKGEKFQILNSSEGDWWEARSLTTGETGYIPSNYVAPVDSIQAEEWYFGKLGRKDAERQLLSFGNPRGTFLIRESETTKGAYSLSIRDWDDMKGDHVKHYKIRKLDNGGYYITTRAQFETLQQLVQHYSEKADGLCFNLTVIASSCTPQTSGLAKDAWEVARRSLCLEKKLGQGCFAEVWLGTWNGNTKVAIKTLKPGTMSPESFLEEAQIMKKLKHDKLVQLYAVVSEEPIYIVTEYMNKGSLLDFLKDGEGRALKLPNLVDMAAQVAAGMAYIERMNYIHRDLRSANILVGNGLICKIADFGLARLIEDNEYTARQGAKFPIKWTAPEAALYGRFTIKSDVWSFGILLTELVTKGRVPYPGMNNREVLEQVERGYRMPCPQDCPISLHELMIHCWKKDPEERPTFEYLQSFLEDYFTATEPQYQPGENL
Summary of the method: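 Human FynT pre-incubated with compounds 60 min at room temperature, then reacted 2 h at room temperature with fluorescein-labelled p34cdc2 peptide (100 nM final). Stopped with IMAP binding solution; fluorescence polarization read after 60 min. Activity as % of ±ATP control difference; EC50 by curve fitting.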

[1] = IMAP, 60 min pre-incubation, 5 μM ATP, bin bound in nM
[2] = read-out: EC50 Lyn activity values, 60 min pre-incubation, 2 μM ATP, bin bound in μM
[3] = read-out: EC50 Lck activity values, IMAP, 60 min pre-incubation, 6 μM ATP, bin bound in μM
[4] = read-out: EC50 Btk activity values, IMAP, 60 min pre-incubation, 5 μM ATP, bin bound in nM
[5] = IMAP, 60 min pre-incubation, 6 μM ATP, bin bound in μM
[6] = IMAP, 60 min pre-incubation, 5 μM ATP, bin bound in μM

Sequence of Src enzyme (P12931 whole entry, looked up): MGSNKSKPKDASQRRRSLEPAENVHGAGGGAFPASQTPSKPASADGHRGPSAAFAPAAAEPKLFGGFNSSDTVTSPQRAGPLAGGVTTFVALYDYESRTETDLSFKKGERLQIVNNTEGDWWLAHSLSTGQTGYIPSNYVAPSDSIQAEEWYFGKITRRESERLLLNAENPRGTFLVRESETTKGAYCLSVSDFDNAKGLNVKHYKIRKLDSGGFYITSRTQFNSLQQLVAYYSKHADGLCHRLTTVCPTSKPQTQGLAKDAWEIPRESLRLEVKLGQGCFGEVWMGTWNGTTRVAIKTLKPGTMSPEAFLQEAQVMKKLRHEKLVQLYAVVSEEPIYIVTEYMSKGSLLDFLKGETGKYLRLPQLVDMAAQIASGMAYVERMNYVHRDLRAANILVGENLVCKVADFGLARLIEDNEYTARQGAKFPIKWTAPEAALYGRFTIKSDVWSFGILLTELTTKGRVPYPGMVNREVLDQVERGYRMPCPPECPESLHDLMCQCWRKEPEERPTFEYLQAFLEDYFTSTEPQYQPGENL

Structure (SMILES)	EC50 (Src enzyme) [nM]	EC50 (Btk enzyme (His-Btk)) [nM]	EC50 Btk activity values (Btk enzyme (His-Btk); [1]) [nM]	EC50 (Lyn enzyme; [2]) [µM]	EC50 (Lck enzyme; [3]) [µM]	EC50 (FynT enzyme) [nM]	EC50 (Btk enzyme (His-Btk); [4]) [nM]	EC50 Lyn activity values (Lyn enzyme; 60 min pre-incubation, 2 μM ATP, bin bound in μM) [µM]	EC50 (Lyn enzyme; EC50 Lyn activity values, 60 min pre-incubation, 2 μM ATP, bin bound in nM) [µM]	EC50 (Lck enzyme) [µM]	EC50 Lck activity values (Lck enzyme; [5]) [µM]	EC50 Btk activity values (Btk enzyme (His-Btk); [6]) [nM]
CC#CC(=O)NCc1nc(-c2ccc(C(=O)Nc3ccccn3)cc2)c2c(N)nccn12 [Example 112, 4-(8-amino-3-(but-2-ynamidomethyl)imidazo[1,5-a]pyrazin-1-yl)-N-(pyridin-2-yl)benzamide]	≥ 1000	10 to 100	<100	≥ 1	≥ 1	≥ 1000	–	–	–	–	–	–
C=CS(=O)(=O)N1CCCC[C@H]1c1nc(-c2ccc(C(=O)Nc3ccccn3)cc2C)c2c(N)nccn12 [Example 66, 4-(8-amino-3-((S)-1-(vinylsulfonyl)piperidin-2-yl)imidazo[1,5-a]pyrazin-1-yl)-3-methyl-N-(pyridin-2-yl)benzamide]	≥ 1000	–	–	≥ 1	≥ 1	≥ 1000	< 10	–	–	–	–	–
CCCc1ccnc(NC(=O)c2ccc(-c3nc([C@@H]4CCCCN4C(=O)c4ccnc(Cl)n4)n4ccnc(N)c34)cc2)c1 [Example 107, (S)-4-(8-amino-3-(1-(2-chloropyrimidine-4-carbonyl)piperidin-2-yl)imidazo[1,5-a]pyrazin-1-yl)-N-(4-propylpyridin-2-yl)benzamide]	≥ 1000	–	–	≥ 1	≥ 1	≥ 1000	< 10	–	–	–	–	–
COC/C=C/C(=O)N1CCC[C@H]1c1nc(-c2ccc(C(=O)Nc3ccccn3)cc2)c2c(N)nccn12 [Example 4, (S,E)-4-(8-amino-3-(1-(4-methoxybut-2-enoyl)pyrrolidin-2-yl)imidazo[1,5-a]pyrazin-1-yl)-N-(pyridin-2-yl)benzamide]	≥ 1000	10 to 100	<100	≥ 1	≥ 1	≥ 1000	–	–	–	–	–	–
C=CC(=O)N1CCC[C@H]1c1nc(-c2ccc(C(=O)Nc3cc(C)ccn3)cc2)c2c(N)nccn12 [Example 124, (S)-4-(3-(1-acryloylpyrrolidin-2-yl)-8-aminoimidazo[1,5-a]pyrazin-1-yl)-N-(4-methylpyridin-2-yl)benzamide]	≥ 1000	–	–	–	–	≥ 1000	< 10	<1	0.1 to 1	0.1 to 1	<1	–
COC/C=C/C(=O)N1CCCC[C@H]1c1nc(-c2ccc(C(=O)Nc3ccncn3)cc2)c2c(N)nccn12 [Example 86, (S,E)-4-(8-amino-3-(1-(4-methoxybut-2-enoyl)piperidin-2-yl)imidazo[1,5-a]pyrazin-1-yl)-N-(pyrimidin-4-yl)benzamide]	≥ 1000	100 to 1000	–	≥ 1	≥ 1	≥ 1000	–	–	–	–	–	<1000
COCC#CC(=O)N1CCC[C@H]1c1nc(-c2ccc(C(=O)Nc3ccccn3)cc2)c2c(N)nccn12 [Example 41, (S)-4-(8-Amino-3-(1-(4-methoxybut-2-ynoyl)pyrrolidin-2-yl)imidazo[1,5-a]pyrazin-1-yl)-N-(pyridin-2-yl)benzamide]	≥ 1000	10 to 100	<100	≥ 1	≥ 1	≥ 1000	–	–	–	–	–	–
CN(C)C/C=C/C(=O)N1CCCC[C@H]1c1nc(-c2ccc(C(=O)Nc3cccnn3)cc2)c2c(N)nccn12 [Example 73, (S,E)-4-(8-amino-3-(1-(4-(dimethylamino)but-2-enoyl)piperidin-2-yl)imidazo[1,5-a]pyrazin-1-yl)-N-(pyridazin-3-yl)benzamide]	≥ 1000	10 to 100	<100	≥ 1	≥ 1	≥ 1000	–	–	–	–	–	–
C=CC(=O)N1CCCC[C@H]1c1nc(-c2ccc(C(=O)Nc3cc(C#N)ccn3)cc2)c2c(N)nccn12 [Example 18, (S)-4-(3-(1-Acryloylpiperidin-2-yl)-8-aminoimidazo[1,5-a]pyrazin-1-yl)-N-(4-cyanopyridin-2-yl)benzamide]	≥ 1000	–	–	≥ 1	≥ 1	≥ 1000	< 10	–	–	–	–	–
CC(C)c1ccnc(NC(=O)c2ccc(-c3nc([C@@H]4CCCN4C(=O)/C=C/CN(C)C)n4ccnc(N)c34)cc2)c1 [Example 65, (S,E)-4-(8-amino-3-(1-(4-(dimethylamino)but-2-enoyl)pyrrolidin-2-yl)imidazo[1,5-a]pyrazin-1-yl)-N-(4-isopropylpyridin-2-yl)benzamide]	≥ 1000	–	–	≥ 1	≥ 1	≥ 1000	< 10	–	–	–	–	–
CC#CC(=O)N1CCCC[C@H]1c1nc(-c2ccc(C(=O)Nc3cc(CCC)ccn3)c(OC)c2)c2c(N)nccn12 [Example 110, (S)-4-(8-amino-3-(1-but-2-ynoylpiperidin-2-yl)imidazo[1,5-a]pyrazin-1-yl)-2-methoxy-N-(4-propylpyridin-2-yl)benzamide]	≥ 1000	–	–	≥ 1	≥ 1	≥ 1000	< 10	–	–	–	–	–
COC/C=C/C(=O)N1CCC[C@H]1c1nc(-c2ccc(C(=O)Nc3ccccn3)c(F)c2)c2c(N)nccn12 [Example 52]	≥ 1000	100 to 1000	–	≥ 1	≥ 1	≥ 1000	–	–	–	–	–	<1000
COC/C=C/C(=O)N1CCCC[C@H]1c1nc(-c2ccc(C(=O)Nc3ccccn3)cc2)c2c(N)nccn12 [Example 16, (S,E)-4-(8-Amino-3-(1-(4-methoxybut-2-enoyl)piperidin-2-yl)imidazo[1,5-a]pyrazin-1-yl)-N-(pyridin-2-yl)benzamide]	≥ 1000	–	–	≥ 1	≥ 1	≥ 1000	< 10	–	–	–	–	–
N#CCN1CCC[C@H]1c1nc(-c2ccc(C(=O)Nc3ccccn3)cc2)c2c(N)nccn12 [Example 94, (S)-4-(8-amino-3-(1-(cyanomethyl)pyrrolidin-2-yl)imidazo[1,5-a]pyrazin-1-yl)-N-(pyridin-2-yl)benzamide]	≥ 1000	100 to 1000	–	≥ 1	≥ 1	≥ 1000	–	–	–	–	–	<1000
C=CC(=O)N1CCC[C@H]1c1nc(-c2ccc(C(=O)Nc3ccccn3)c(OC)c2)c2c(N)nccn12 [Example 14, (S)-4-(3-(1-Acryloylpyrrolidin-2-yl)-8-aminoimidazo[1,5-a]pyrazin-1-yl)-2-methoxy-N-(pyridin-2-yl)benzamide]	≥ 1000	–	–	≥ 1	≥ 1	≥ 1000	< 10	–	–	–	–	–
Nc1nccn2c([C@@H]3CCCCN3C(=O)c3ccnc(Cl)n3)nc(-c3ccc(C(=O)Nc4ncccn4)cc3)c12 [Example 90, (S)-4-(8-amino-3-(1-(2-chloropyrimidine-4-carbonyl)piperidin-2-yl)imidazo[1,5-a]pyrazin-1-yl)-N-(pyrimidin-2-yl)benzamide]	≥ 1000	100 to 1000	–	≥ 1	≥ 1	≥ 1000	–	–	–	–	–	<1000
CCCc1ccnc(NC(=O)c2ccc(-c3nc([C@@H]4CCCCN4C(=O)/C=C/CN(C)C)n4ccnc(N)c34)cc2OC)c1 [Example 27, (S,E)-4-(8-Amino-3-(1-(4-(dimethylamino)but-2-enoyl)piperidin-2-yl)imidazo[1,5-a]pyrazin-1-yl)-2-methoxy-N-(4-propylpyridin-2-yl)benzamide]	≥ 1000	–	–	≥ 1	≥ 1	≥ 1000	< 10	–	–	–	–	–
C=CC(=O)N1CCCC[C@H]1c1nc(-c2ccc(C(=O)Nc3ncc(CC)s3)cc2)c2c(N)nccn12 [Example 117, (S)-4-(3-(1-acryloylpiperidin-2-yl)-8-aminoimidazo[1,5-a]pyrazin-1-yl)-N-(5-ethylthiazol-2-yl)benzamide]	≥ 1000	–	–	≥ 1	≥ 1	≥ 1000	< 10	–	–	–	–	–
CC(=O)SCC(=O)N1CCC[C@H]1c1nc(-c2ccc(C(=O)Nc3ccccn3)cc2)c2c(N)nccn12 [Example 31, (S)—S-2-(2-(8-Amino-1-(4-(pyridin-2-ylcarbamoyl)phenyl)imidazo[1,5-a]pyrazin-3-yl)pyrrolidin-1-yl)-2-oxoethyl ethanethioate]	≥ 1000	–	–	≥ 1	≥ 1	≥ 1000	< 10	–	–	–	–	–
CC#CC(=O)N1CCCC[C@H]1c1nc(-c2ccc(C(=O)Nc3ccccn3)cc2)c2c(N)nccn12 [Example 45, (S)-4-(8-amino-3-(1-but-2-ynoylpiperidin-2-yl)imidazo[1,5-a]pyrazin-1-yl)-N-(pyridin-2-yl)benzamide]	≥ 1000	–	–	≥ 1	≥ 1	≥ 1000	< 10	–	–	–	–	–
C=CC(=O)N1CCC[C@H]1c1nc(-c2ccc(C(=O)Nc3cc(C#N)ccn3)cc2)c2c(N)nccn12 [Example 122, (S)-4-(3-(1-acryloylpyrrolidin-2-yl)-8-aminoimidazo[1,5-a]pyrazin-1-yl)-N-(4-cyanopyridin-2-yl)benzamide]	≥ 1000	–	–	≥ 1	–	≥ 1000	< 10	–	–	0.1 to 1	<1	–
